The values below come from patent publication US20240226117A1, “TREATMENT OF CONGENITAL ADRENAL HYPOPLASIA” (ReveraGen BioPharma, Inc., priority 2021, published 2024).

Molecules are shown by their SMILES.

One data set relates to DMD participants. Briefly: VBP15-003/VBP15-LTE motor outcomes over 18 months (TTSTAND, TTRW, TTCLIMB, 6MWT, NSAA). The data set is classed as in vivo, human. Particulars: ANCOVA; for TTCLIMB velocity, LS mean difference (SE) / TTSTAND velocity, LS mean difference (SE): vamorolone 2.0 or 6.0 mg/kg/day 18 months versus corticosteroid-naïve DNHS. How it is done: Three consecutive clinical trials of vamorolone treatment of DMD were conducted by CINRG (VBP15-002 [NCT02760264]: VBP15-003 [NCT02760277]: VBP15-LTE [NCT03038399]). A total of 48 participants (ages 4 to <7 years) were initially enrolled into VBP15-002, with trial participants completing month 12 of the 24-month VBP15-LTE study.
The consecutive vamorolone trials (VBP15-002, VBP15-003, VBP15-LTE) were open-label with no placebo comparator. Corticosteroid-naïve and corticosteroid-treated DMD participant comparators were group-matched participants from the CINRG DNHS (NCT00468832). The CINRG DNHS was an observational, prospective case-control study of 551 participants (440 with DMD, 111 healthy peers). For group matching between vamorolone-treated participants and CINRG DNHS participants, prespecified criteria were defined for matching within the interim statistical analysis plan (iSAP). Age-matched CINRG DNHS participants included those continuously corticosteroid-naïve over an 18-month period (n=19) or continuously corticosteroid-treated over an 18-month period (n=68). For the 68 corticosteroid-treated participants, as this was an observational cohort, corticosteroid doses and regimens varied based on clinician discretion. Although all 68 participants were treated for 18 months continuously, the age at initiation of corticosteroids varied. Thus, the total duration of corticosteroid treatment was longer than 18 months for most participants.
Assessments of efficacy were motor outcomes (primary outcome: time to stand from supine [TTSTAND]: secondary outcomes: time to run/walk 10 meters [TTRW], time to climb four stairs [TTCLIMB], distance covered in 6-minute walk test [6MWT], and the North Star Ambulatory Assessment [NSAA]). 6MWT and NSAA were not assessed in most CINRG DNHS participants and were not compared to vamorolone-treated participants. According to standard operating procedures, clinical evaluators were trained to harmonize the CINRG vamorolone, CINRG DNHS, and CINRG prednisone studies. Reliability of these outcomes (percent coefficient of variation) has been reported for the VBP15-002/VBP15-003 studies. Assessments were done at baseline (VBP15-002 entry), 24 weeks (VBP15-003 last visit), and 18 months (VBP15-LTE midpoint assessment at 12 months).
Only participants completing VBP15-002 and VBP15-003 were eligible to enroll in VBP15-LTE. Participants received vamorolone at 1 of 4 dose levels (0.25, 0.75, 2.0, or 6.0 mg/kg/day) and at the same dose level in both the 4-week VBP15-002 trial and the 24-week VBP15-003 trial. If participants, their families, and their physicians wished to continue vamorolone treatment upon exiting the VBP15-003 trial, they were offered participation in the 24-month long-term extension (VBP15-LTE). The last visit of the VBP15-003 trial was commensurate with the first visit of the VBP15-LTE trial. In all studies, study medication was provided as 4% flavored liquid suspension and was dosed according to body weight and given once daily in the morning with food.
Vamorolone-treated participants were initially enrolled into VBP15-002 and VBP15-003 in 4 dose groups (0.25, 0.75, 2.0, and 6.0 mg/kg/day: groups A-D). Upon entering VBP15-LTE, vamorolone group A participants had 2 or 3 sequential dose escalations and were treated with 2.0 or 6.0 mg/kg/day for the last 3-9 months of the 18 months: group B participants had 1 or 2 dose escalations and were treated with 2.0 or 6.0 mg/kg/day for the last 9-11 months. Groups C and D were treated for 18 months at 2.0 or 6.0 mg/kg/day (S1 Fig).
The current study is the first to evaluate the longer-term tolerability, efficacy, and safety of vamorolone in DMD. […] Given the variable timing of dose escalations, it was prespecified that initial analyses of drug-related efficacy and safety would be limited to those participants who had 18 months of treatment with 2.0 mg/kg/day vamorolone or more (dose group C+dose group D: n=23). […]

Data set [1] concerns ambulant boys with DMD. Particulars: in vivo.
In data set [2] the test system is ambulant boys with DMD. Briefly: VBP15-004 growth (height Z score). The data set is classed as in vivo, human.
Data set [3] deals with T1, mineralocorticoid receptor (Homo sapiens, UniProt P08235).
T1 sequence (P08235 1-984): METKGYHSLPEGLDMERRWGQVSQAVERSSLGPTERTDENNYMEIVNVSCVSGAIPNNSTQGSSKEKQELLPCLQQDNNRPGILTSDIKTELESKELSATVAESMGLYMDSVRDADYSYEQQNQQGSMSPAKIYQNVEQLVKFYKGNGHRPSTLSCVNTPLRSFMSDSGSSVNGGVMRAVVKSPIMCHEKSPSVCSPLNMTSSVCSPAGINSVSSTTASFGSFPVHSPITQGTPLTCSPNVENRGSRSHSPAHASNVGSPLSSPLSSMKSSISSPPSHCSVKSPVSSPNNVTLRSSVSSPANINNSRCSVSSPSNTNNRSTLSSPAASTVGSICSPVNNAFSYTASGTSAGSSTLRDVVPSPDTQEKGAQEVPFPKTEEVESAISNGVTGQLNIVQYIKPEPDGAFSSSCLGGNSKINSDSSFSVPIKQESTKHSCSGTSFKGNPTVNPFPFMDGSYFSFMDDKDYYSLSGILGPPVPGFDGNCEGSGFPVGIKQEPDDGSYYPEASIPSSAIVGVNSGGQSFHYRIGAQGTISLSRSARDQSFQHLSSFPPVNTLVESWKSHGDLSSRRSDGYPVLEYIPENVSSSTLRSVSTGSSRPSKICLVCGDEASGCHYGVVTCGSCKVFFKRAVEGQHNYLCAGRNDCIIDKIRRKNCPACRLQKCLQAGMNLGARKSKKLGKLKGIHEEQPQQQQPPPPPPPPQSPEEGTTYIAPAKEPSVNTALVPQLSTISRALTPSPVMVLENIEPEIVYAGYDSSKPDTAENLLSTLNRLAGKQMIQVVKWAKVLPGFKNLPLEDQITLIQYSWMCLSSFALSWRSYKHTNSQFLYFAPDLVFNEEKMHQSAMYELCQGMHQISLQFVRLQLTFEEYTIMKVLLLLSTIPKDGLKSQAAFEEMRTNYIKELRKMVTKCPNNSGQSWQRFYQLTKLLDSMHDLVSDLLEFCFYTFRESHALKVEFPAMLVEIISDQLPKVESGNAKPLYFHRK
Particulars: background statement; cited from earlier work.

The mark [4] stands for this setting: vamorolone 18 months versus corticosteroid-naïve participants.

For `C[C@@H]1C[C@H]2[C@@H]3CCC4=CC(=O)C=C[C@]4(C)C3=CC[C@]2(C)[C@@]1(O)C(=O)CO` [Vamorolone, 17α,21-dihydroxy-16α-methylpregna-1,4,9(11)-triene-3,20-dione], in the data set with DMD participants, the “TTCLIMB velocity, LS mean difference (SE)” value was 0.059 (0.026) event/second and the “TTSTAND velocity, LS mean difference (SE)” value is reported as 0.042 (0.024) event/second. Further, in the data set on DMD participants (listed as vamorolone), the “TTCLIMB velocity, LS mean difference (SE)” value was determined as 0.059 event/second and the “TTSTAND velocity, LS mean difference (SE)” value worked out at 0.042 event/second. Also, in the data set on DMD participants (setting [4]), the “TTCLIMB in seconds units, LS mean difference” value is -0.34 s and the “TTRW in seconds units, LS mean difference” value was -0.84 s. Moreover, the “clinically relevant psychiatric events, subjects” value with ambulant boys with DMD [1] was “no vamorolone-treated subjects”. Further, the “moderate/severe behavior problems, subjects” value in the data set with ambulant boys with DMD [1] (male, human, 24 weeks) amounted to 1.7%. Moreover, the “change in height Z scores from baseline to Week 24” value in the data set with ambulant boys with DMD [2] (vamorolone 2.0 mg/kg/day) is reported as “overall stable height change Z scores”. Moreover, in the data set on ambulant boys with DMD [2] (vamorolone 6.0 mg/kg/day, p=0.02 versus prednisone), the “change in height Z scores from baseline to Week 24” value is given as “increased growth rate”. The “activity at the mineralocorticoid receptor” value in data set [3] is “potent antagonist”.
